Laboratory results published in PubChem BioAssay (NCI).
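Cultured in 96-well plates, cells were exposed to test compound for 48 hours across five concentrations. GI50 = concentration required for 50% inhibition of growth. TGI: concentration producing complete growth inhibition.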

How the values were obtained:
Assay in all cases: NCI anticancer screen, dose series, 48 h
[1] = tested on: 786-0 renal
[2] = tested on: A498 renal
[3] = tested on: A549 NSCLC
[4] = tested on: ACHN renal
[5] = tested on: BT-549 breast
[6] = tested on: CAKI-1 renal
[7] = tested on: CCRF-CEM leukemia
[8] = tested on: COLO 205 colon
[9] = tested on: DU-145 prostate
[10] = tested on: EKVX NSCLC
[11] = tested on: HCC-2998 colon
[12] = tested on: HCT-116 colon
[13] = tested on: HCT-15 colon
[14] = tested on: HL-60(TB) leukemia
[15] = tested on: HOP-62 NSCLC
[16] = tested on: HOP-92 NSCLC
[17] = tested on: HS 578T breast
[18] = tested on: HT29 colon
[19] = tested on: IGROV1 ovarian
[20] = tested on: K-562 leukemia
[21] = tested on: KM12 colon
[22] = tested on: LOX IMVI melanoma
[23] = tested on: M14 melanoma
[24] = tested on: MALME-3M melanoma
[25] = tested on: MCF7 breast
[26] = tested on: MDA-MB-231 breast
[27] = tested on: MOLT-4 leukemia
[28] = tested on: NCI-H226 lung
[29] = tested on: NCI-H23 lung
[30] = tested on: NCI-H460 lung
[31] = tested on: NCI-H522 lung
[32] = tested on: NCI/ADR-RES ovarian
[33] = tested on: OVCAR-3 ovarian
[34] = tested on: OVCAR-4 ovarian
[35] = tested on: OVCAR-5 ovarian
[36] = tested on: OVCAR-8 ovarian
[37] = tested on: PC-3 prostate
[38] = tested on: RPMI-8226 leukemia
[39] = tested on: RXF 393 renal
[40] = tested on: SF-268 CNS
[41] = tested on: SF-295 CNS
[42] = tested on: SF-539 CNS
[43] = tested on: SK-MEL-2 melanoma
[44] = tested on: SK-MEL-28 melanoma
[45] = tested on: SK-MEL-5 melanoma
[46] = tested on: SK-OV-3 ovarian
[47] = tested on: SN12C renal
[48] = tested on: SNB-19 CNS
[49] = tested on: SNB-75 CNS
[50] = tested on: SR leukemia
[51] = tested on: SW-620 colon
[52] = tested on: T-47D breast
[53] = tested on: TK-10 renal
[54] = tested on: U251 CNS
[55] = tested on: UACC-257 melanoma
[56] = tested on: UACC-62 melanoma
[57] = tested on: UO-31 renal

SMILES: O=C(N/N=C/c1ccc[nH]1)c1[nH]c2ccc(Br)cc2c1-c1ccccc1
- GI50 [1]: 669 nM
- TGI [1]: 7370 nM
- GI50 [2]: 6360 nM
- TGI [2]: 21900 nM
- GI50 [3]: 345 nM
- TGI [3]: 6880 nM
- GI50 [4]: 516 nM
- TGI [4]: 5880 nM
- GI50 [5]: 416 nM
- TGI [5]: 2420 nM
- GI50 [6]: 362 nM
- TGI [6]: 9860 nM
- GI50 [7]: 385 nM
- TGI [7]: 11800 nM
- GI50 [8]: 298 nM
- TGI [8]: 1320 nM
- GI50 [9]: 489 nM
- TGI [9]: 12400 nM
- GI50 [10]: 881 nM
- TGI [10]: 9160 nM
- GI50 [11]: 408 nM
- TGI [11]: 4810 nM
- GI50 [12]: 318 nM
- TGI [12]: 11000 nM
- GI50 [13]: 297 nM
- TGI [13]: 10900 nM
- GI50 [14]: 235 nM
- TGI [14]: 619 nM
- GI50 [15]: 526 nM
- TGI [15]: 8930 nM
- GI50 [16]: 1770 nM
- TGI [16]: 9770 nM
- GI50 [17]: 380 nM
- TGI [17]: 19700 nM
- GI50 [18]: 324 nM
- TGI [18]: 4310 nM
- GI50 [19]: 460 nM
- TGI [19]: 4100 nM
- GI50 [20]: 253 nM
- TGI [20]: 29800 nM
- GI50 [21]: 477 nM
- TGI [21]: 6080 nM
- GI50 [22]: 310 nM
- TGI [22]: 4970 nM
- GI50 [23]: 322 nM
- TGI [23]: 10700 nM
- GI50 [24]: 410 nM
- TGI [24]: 11500 nM
- GI50 [25]: 178 nM
- TGI [25]: 2410 nM
- GI50 [26]: 572 nM
- TGI [26]: 6090 nM
- GI50 [27]: 437 nM
- TGI [27]: 13400 nM
- GI50 [28]: 398 nM
- TGI [28]: 2780 nM
- GI50 [29]: 456 nM
- TGI [29]: 11300 nM
- GI50 [30]: 338 nM
- TGI [30]: 1230 nM
- GI50 [31]: 92.7 nM
- TGI [31]: 515 nM
- GI50 [32]: 316 nM
- TGI [32]: 2190 nM
- GI50 [33]: 477 nM
- TGI [33]: 12400 nM
- GI50 [34]: 954 nM
- TGI [34]: 12100 nM
- GI50 [35]: 489 nM
- TGI [35]: 10700 nM
- GI50 [36]: 361 nM
- TGI [36]: 3420 nM
- GI50 [37]: 441 nM
- TGI [37]: 8150 nM
- GI50 [38]: 400 nM
- TGI [38]: 10700 nM
- GI50 [39]: 339 nM
- TGI [39]: 10300 nM
- GI50 [40]: 1570 nM
- TGI [40]: 9840 nM
- GI50 [41]: 243 nM
- TGI [41]: 1020 nM
- GI50 [42]: 219 nM
- TGI [42]: 590 nM
- GI50 [43]: 379 nM
- TGI [43]: 13900 nM
- GI50 [44]: 653 nM
- TGI [44]: 16100 nM
- GI50 [45]: 344 nM
- TGI [45]: 1600 nM
- GI50 [46]: 614 nM
- TGI [46]: 9890 nM
- GI50 [47]: 410 nM
- TGI [47]: 3910 nM
- GI50 [48]: 423 nM
- TGI [48]: 11500 nM
- GI50 [49]: 187 nM
- TGI [49]: 3830 nM
- GI50 [50]: 273 nM
- GI50 [51]: 378 nM
- TGI [51]: 13600 nM
- GI50 [52]: 319 nM
- TGI [52]: 7250 nM
- GI50 [53]: 1710 nM
- TGI [53]: 13900 nM
- GI50 [54]: 349 nM
- TGI [54]: 4570 nM
- GI50 [55]: 688 nM
- TGI [55]: 13700 nM
- GI50 [56]: 191 nM
- TGI [56]: 1760 nM
- GI50 [57]: 489 nM
- TGI [57]: 5740 nM
